pIC50: −log10 of the molar value. A value given as a limit tells only on which side of the number the result lay.

A short description of data set [1]: MTT cytotoxicity study. It counts as cell-based, C57bl/6j mice. The conditions noted are these: male, C57bl/6j, mouse; peritoneal macrophages, 24 h incubation. Here is the method: (§1) Peritoneal macrophages (PM) were isolated from the peritoneal exudate of 30 male C57bl/6j mice. To accumulate PM, 1 mL of 3% peptone solution was injected intraperitoneally. After 3 days, the mice were euthanized by cervical dislocation. Cells of peritoneal exudate were obtained by aseptic washing of the abdominal cavity with 5 mL of sterile Hanks’s solution (+4–6 °C) without calcium and magnesium ions. The total number and viability of cells were assessed in a Goryaev counting chamber (Russia) with a 0.4% trypan blue staining (Sigma-Aldrich, St. Louis, MO, USA). The cell concentration was adjusted to 1.0 × 10^6 cells/mL in DMEM (Gibco, Waltham, MA, USA) supplemented with 2 mM L-glutamine (Gibco), 10% heat-inactivated fetal bovine serum (BioClot, Bavaria, Germany), 100 U/mL penicillin, and […] streptomycin (Gibco) and plated 200 µL/well in 96-well transparent plates (SPL Life Sciences Co., Ltd., Pocheon-si, Republic of Korea). After 2 h at 37 °C in a humidified atmosphere with 5% CO2, the wells were washed to remove non-adherent cells. After 24 h of incubation, 20 µL of the supernatants were substituted with 20 µL of solutions of test compounds, followed by E. coli O127:B8 LPS (100 ng/mL final concentration) after 30 min. The experiments were run in 3 independent replicates.
(§2) The activity of lactate dehydrogenase (LDH) in a cell culture medium served as a marker of membrane permeability and cell death. Aliquots of supernatants were taken after 24 h of inoculation with test compounds, mixed with 250 µL of […] NADH solution in 54 mM phosphate-buffered saline (pH 7.5). Then, 25 µL of a 6.48 mM pyruvate solution was added to the mixture. The optical density was followed at a wavelength of 340 nm for 20 min. The MTT test was performed 24 h after incubations of cells with tested compounds. Briefly, 20 µL of MTT solution was added to each well and incubated at 37 °C in a humidified atmosphere containing 5% CO2 for 4 h. The culture medium was removed, the cells were lysed, and formazan crystals were dissolved in 150 µL DMSO. The plates were shaken at room temperature for 10 min, and the optical density was measured in a microplate reader Infinite M200 PRO (Tecan, Grödig, Austria) at a wavelength of 565 nm.

In data set [2] the test system is peritoneal macrophages. Nature of the data set: MTT cytotoxicity study. It counts as cell-based, C57bl/6j mice. Here is the method: as §1, §2
Data set [3] deals with phagocytic activity of C57bl/6j peritoneal macrophages. Nature of the data set: Phagocytosis assay (yeast). It counts as cell-based, C57bl/6j mice. Conditions: 72 h of incubation. Here is the method:
Peritoneal macrophages of C57bl/6j mice were cultured in a 24-well plate at a volume of 500 µL/well (1 × 10^5 cells/mL) for 24 h. Test compounds or DMSO were added to wells in triplicate followed by 50 µL of 1% yeast suspension, and the plates were incubated for 40 min. After 24 or 72 h, the medium was removed. The cells were fixed with May–Grunwald methanol dye and stained with Azur–Eosin in Romanovsky’s modification for 45 min at room temperature, washed, air-dried, and analyzed using a microscope Mikmed-6 (Russia), equipped with a digital camera. The study was performed in three technical replicates and two series; 100 macrophages were processed in each sample to count the captured yeast cells. Macrophage spreading was assessed as a number of pseudopodia.

Data set [4] relates to NO synthesis in LPS-stimulated primary murine peritoneal macrophages. Nature of the data set: Inhibition of NO synthesis in LPS-stimulated macrophages (Griess). It counts as cell-based, C57bl/6j mice. The conditions noted are these: Mus musculus, Peritoneal macrophage; LPS-stimulated (100 ng/mL E. coli LPS) peritoneal macrophages, supernatants after 22 h; n.a. = not active. The protocol:
as §1
The accumulation of the nitrite anion (a stable end product of NO decomposition) in supernatants was determined using a standard Griess reagent. Briefly, 50 µL of supernatants were collected 22 h after incubation of PM, and the test and control compounds were mixed with 50 µL of 1% sulfonamide in 2.5% H3PO4 and 50 µL of 0.1% N-(1-naphthyl) ethylenediamine in 2.5% H3PO4. After incubation at 23 °C for 10 min in an orbital shaker, the optical density was determined at a wavelength of 550 nm with a microplate reader Infinite M200 PRO (Tecan, Grödig, Austria).
(Nitrite, measured by Griess reagent, commonly stands in for NO production.)

Data set [5] deals with IL-6 release in LPS-stimulated primary murine peritoneal macrophages. Nature of the data set: Inhibition of IL-6 release in LPS-stimulated macrophages (ELISA). It counts as cell-based, C57bl/6j mice. The conditions noted are these: Mus musculus, Peritoneal macrophage; LPS-stimulated (100 ng/mL E. coli LPS) peritoneal macrophages; n.a. = not active. Here is the method:
as §1
(§3) The cell supernatant was collected and centrifuged at 1000× g for 20 min in a 2–16 PK centrifuge (Sigma, Osterode am Harz, Germany). The concentrations of IL-6 and TNF-alpha were determined by ELISA using commercial kits (Cloud-clone, Houston, TX, USA) with a microplate reader Infinite M200 PRO (Tecan, Grödig, Austria).
(In general: ELISA stands for enzyme-linked immunosorbent assay.)

Data set [6] has as its system LPS-induced acute lung injury in C57BL/6J mice. Nature of the data set: LPS-induced acute lung injury: histological study. It counts as in vivo. The conditions noted are these: 24 h after LPS; for Mean Injury Score (semi-quantitative morphological score of lung tissue damage): score 0-3, dexamethasone 5 mg/kg, 6e 30 mg/kg i.p. 1 h before oropharyngeal LPS. Here is the method: (§4) The randomization of C57BL/6J mice was performed by body weight and motor activity in an open field test. […] The control animals received an equal volume of the vehicle. After 1 h, the mice were anesthetized with isoflurane inhalation until their breathing rate was decreased. The mice were suspended by the front incisors on an inclined surgical table, the tongue was pulled out with narrow curved tweezers, and 1 mg/mL of E. coli O127:B8 LPS (Sigma-Aldrich, St. Louis, MO, USA) in 1 mL/kg sterile saline was instilled into the back of the oropharynx. Intact control animals received an equal volume of sterile saline similarly.
(§5) The mice were anesthetized with 500 mg/kg chloral hydrate (Sigma-Aldrich, St. Louis, MO, USA) intraperitoneally 24 h after LPS administration. Blood was taken by intracardiac puncture in test tubes with heparin. The blood samples were centrifuged at 1000× g and 4 °C for 15 min on a 2–16 PK centrifuge (Sigma, Germany), and plasma was separated and stored at −80 °C until the assay. Thoracotomy was performed, the ligature was applied to the left bronchus and the trachea was cannulated with a 20 G needle. The right lung was washed twice with 0.7 mL of warm sterile saline. After combining aliquots, the bronchoalveolar lavage (BAL) was centrifuged at 800× g and 4 °C for 10 min. The supernatant was separated and stored at −80 °C until the assay. The residual cell pellet was resuspended in 50 µL of PBS for further study. The left lung was washed in saline and placed in 10% buffered formalin for morphological evaluation.
The sections were examined under a light microscope (Zeiss, Germany) by a double-blind method.

Data set [7] has the same test system. Nature of the data set: LPS-induced acute lung injury: open field test. It counts as in vivo. The conditions noted are these: 6e 30 mg/kg i.p., within 24 h after LPS; for motor activity in the open field test, in words: dexamethasone 5 mg/kg. Here is the method:
as §4
The animals were placed in the center of a round open field with an arena of 44 cm diameter and 32 cm wall height under 300 lux lighting. During 5 min of observation, horizontal motor activity, vertical motor activity, time spent in the central part, the number of exits to the central part, and exploratory activity parameters were recorded. Body temperature was determined rectally.

Data set [8] shares this test system. Nature of the data set: LPS-induced acute lung injury: biochemical markers of inflammation (IL-6, lung permeability index). It counts as in vivo. The conditions noted are these: 6e 30 mg/kg i.p., 24 h after LPS. The protocol:
as §3, §4, §5
The concentration of total protein in BAL supernatants was determined spectrophotometrically with the pyrogallol red method, and the protein in the blood plasma was determined with the biuret method using commercial kits (Vital, Saint Petersburg, Russia) and bovine serum albumin as the standard. The lung permeability index was calculated as the protein concentration in the BAL to plasma ratio.

Data set [9] has the same test system. Nature of the data set: LPS-induced acute lung injury: leukocyte markers in blood, BAL and spleen. It counts as in vivo. Conditions: dexamethasone 5 mg/kg, 6e 30 mg/kg i.p.; 24 h after LPS. Here is the method: as §4, §5
The total number of leukocytes in heparinized blood was determined after staining with methylene blue in Goryaev’s counting chamber at ×100 magnification. Smears of blood and BAL cell pellets were air-dried, fixed according to May–Grunwald for 3 min, and stained according to Romanowsky–Giemsa. After 30 min, the slides were washed, air-dried, and examined with an immersion objective (×1000 total magnification). On each slide, a total of at least 100 cells were calculated.

Usually CC50 stands for the concentration at which the toxic effect on the cells reaches its halfway point. Lower therefore signals harm at low concentration. `Cc1nc(-c2ccccc2)cc(-c2ccccc2N)n1` [Compound 6a] showed a CC50 at 24 h in data set [1] of over 100 µM. In addition, the “cytotoxicity in the MTT test, in words” value in [2] is recorded as “pronounced cytotoxicity”. Moreover, in [3], the “macrophage phagocytic activity (number of phagocytes), in words” value is “preserve macrophage phagocytic activity” and the “phagocytic capacity (number of yeast cells per macrophage), in words” value is “significantly suppressed macrophage phagocytic capacity”. For the same compound, in data set [3] (vs DMSO), the “decrease of the mean number of phagocytosed particles” value was found to be 35%.
In general, pIC50 refers to the IC50 on a negative log10 scale, so that one unit is a factor of ten. Read a high pIC50 as a small IC50. With `Cc1nc(-c2ccccc2)cc(-c2ccc(N)cc2)n1` [Compound 6b], the pIC50 in data set [4] was 4.68; in data set [5], 5.66. This compound also registered a CC50 at 24 h in data set [1] of 65.6 µM.
For `CCOC(=O)C1=C(C)NC(C)=NC1c1cccc(N)c1` (centres unmarked) [Compound 10a], in data set [4], the pIC50 is 3.49. For the same compound, in [1], the CC50 at 24 h was over 100 µM.
`Cc1nc(-c2ccc(N)cc2)cc(-c2cccc(N)c2)n1` [Compound 6d] came in with a CC50 at 24 h in data set [1] of over 100 µM.
For the compound `Nc1ccc(-c2cc(-c3ccc(N)cc3)nc(N)n2)cc1` [Compound 6f], in data set [4], the pIC50 is 4.37. Moreover, it took 96.1 µM to reach half-maximal cytotoxicity in [1] (CC50 at 24 h).
For the compound `Cc1nc(-c2ccc(N)cc2)cc(-c2ccc(F)cc2)n1` [Compound 6c], the pIC50 in [4] is 6.43; in data set [5], 4.46. Further, the CC50 at 24 h in [1] was over 100 µM.
For `Nc1ccc(-c2cc(-c3ccc(F)cc3)n3ncnc3n2)cc1` [Compound 7a], in that order: 6.43, 4.83 and over 100 µM.
In the same order, the values of `Nc1ccc(-c2cc(-c3cccc(N)c3)n3ncnc3n2)cc1` [Compound 7b] are 4.34, 4.50 and over 100 µM.
Consider `CCOC(=O)C1=C(C)Nc2ncnn2C1c1ccc(N)cc1` (centres unmarked) [Compound 11b], for which the CC50 at 24 h in [1] was over 100 µM.
`CCOC(=O)C1=C(C)NC(C)=NC1c1ccc(N)cc1` (centres unmarked) [Compound 10b] showed a pIC50 in [4] of 4.14. The compound further showed a CC50 at 24 h in [1] of 178 µM.
In the case of `Cc1nc(-c2ccc(N)cc2)cc(-c2ccc(N)cc2)n1` [Compound 6e], in [4], the pIC50 was 4.79. Besides, the pIC50 in data set [5] is 4.73. The same compound returned a CC50 at 24 h in data set [1] of over 100 µM. In addition, in data set [3], the “phagocytic capacity (number of yeast cells per macrophage), in words” value is given as “retains a nearly normal phagocytic capacity”. Moreover, in data set [3] (vs DMSO), the “decrease of the phagocytic index” value is listed as 32%. Also, in data set [6] (6e 30 mg/kg i.p., H&E), the “histological inflammatory lesions of the lung, in words” value is on record as “limited inflammatory lesions”. For the same compound, the “Mean Injury Score (semi-quantitative morphological score of lung tissue damage)” value in data set [6] was determined as 1.83. In [7], the “exploratory behavior in the open field test, in words” value was “improved” and the “motor activity in the open field test, in words” value was “increased the motor activity of mice but was inferior to dexamethasone activity”. In addition, the “lung permeability index, in words” value in data set [8] (BAL to plasma protein ratio) is listed as “preserving the vascular permeability at intact levels”. Moreover, in data set [8] (dexamethasone 5 mg/kg), the “markers of inflammation and lung damage (IL-6 in BAL and plasma, alveolar vessel permeability), in words” value is “normalized these markers of inflammation and lung damage”; the “plasma IL-6 concentration, in words” value is recorded as “normalized it to intact levels”. In addition, in [9], the “BAL: ratio of segmented neutrophils to monocytes, in words” value was “amelioration of this ratio” and the “spleen lymphocytes (systemic immunosuppression), in words” value is recorded as “preserved normal content of spleen lymphocytes”.
Take `CSc1nc(-c2ccc(N)cc2)cc(-c2ccc(N)cc2)n1` [Compound 6g]: the pIC50 was 6.92 in data set [4] and under 4.00 in data set [5]. In addition, in data set [1], the CC50 at 24 h was over 100 µM.
Take `C[C@@H]1C[C@H]2[C@@H]3CCC4=CC(=O)C=C[C@]4(C)[C@@]3(F)[C@@H](O)C[C@]2(C)[C@@]1(O)C(=O)CO` [Dexamethasone, reference compound]: the pIC50 in [4] was 4.63. This compound gave a pIC50 in data set [5] of 5.60. In [1], this compound returned a CC50 at 24 h of 97.4 µM. Also, in data set [3], the “macrophage phagocytic activity (number of phagocytes), in words” value is reported as “reducing both the number of phagocytes”; the “phagocytic capacity (number of yeast cells per macrophage), in words” value was “reducing both the number of phagocytes and their phagocytic capacity”. Moreover, the “Mean Injury Score (semi-quantitative morphological score of lung tissue damage)” value in [6] was found to be 1.33. Also, the “motor activity in the open field test, in words” value in data set [7] is given as “corrected by dexamethasone”. In [8] (dexamethasone 5 mg/kg), the “plasma IL-6 concentration, in words” value was “normalized it to intact levels”. In data set [9], the “blood: recruitment of segmented neutrophils at the expense of lymphocytes, in words” value was “corrected by dexamethasone” and the “spleen lymphocytes (systemic immunosuppression), in words” value is listed as “significantly decreased proliferation of spleen lymphocytes”.
Consider `CCOC(=O)C1=C(C)Nc2ncnn2C1c1cccc(N)c1` (centres unmarked) [Compound 11a], for which the CC50 at 24 h in data set [1] was over 100 µM.
